Assay results reported in patent US9649309B2 (priority 2014, dated 2017).

Columns and labels:
Axl = Axl (Homo sapiens (Human), UniProt P30530); conditions: read-out: IC50 Axl
Tyro3 = Tyro3 (Homo sapiens (Human), UniProt Q06418); conditions: read-out: IC50 Tyro3
Tyro3, sequence (Q06418 41-890 limits assumed): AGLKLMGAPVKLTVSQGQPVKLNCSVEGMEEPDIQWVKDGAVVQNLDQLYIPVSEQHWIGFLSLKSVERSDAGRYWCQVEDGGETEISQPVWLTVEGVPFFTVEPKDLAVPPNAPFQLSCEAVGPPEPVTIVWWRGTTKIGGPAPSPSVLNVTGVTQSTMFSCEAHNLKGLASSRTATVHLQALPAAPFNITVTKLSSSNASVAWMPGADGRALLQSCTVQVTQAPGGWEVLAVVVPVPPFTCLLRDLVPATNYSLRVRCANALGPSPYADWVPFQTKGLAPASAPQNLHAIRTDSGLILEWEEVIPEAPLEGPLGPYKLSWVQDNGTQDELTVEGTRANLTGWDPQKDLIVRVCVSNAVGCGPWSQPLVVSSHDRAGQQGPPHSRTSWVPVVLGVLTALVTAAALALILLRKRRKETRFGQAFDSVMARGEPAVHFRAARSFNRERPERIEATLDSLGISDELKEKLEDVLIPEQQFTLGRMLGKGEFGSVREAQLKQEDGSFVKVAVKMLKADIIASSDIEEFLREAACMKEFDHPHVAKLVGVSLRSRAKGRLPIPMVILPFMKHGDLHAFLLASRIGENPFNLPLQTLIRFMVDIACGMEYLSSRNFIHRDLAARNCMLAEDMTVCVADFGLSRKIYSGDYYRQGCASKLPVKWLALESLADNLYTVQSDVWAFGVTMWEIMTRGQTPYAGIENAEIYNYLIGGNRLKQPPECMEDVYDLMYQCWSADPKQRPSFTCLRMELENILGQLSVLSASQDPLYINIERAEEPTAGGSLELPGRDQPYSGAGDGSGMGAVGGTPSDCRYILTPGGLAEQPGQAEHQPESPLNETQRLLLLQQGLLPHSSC

Axl, sequence (P30530 26-894 limits assumed): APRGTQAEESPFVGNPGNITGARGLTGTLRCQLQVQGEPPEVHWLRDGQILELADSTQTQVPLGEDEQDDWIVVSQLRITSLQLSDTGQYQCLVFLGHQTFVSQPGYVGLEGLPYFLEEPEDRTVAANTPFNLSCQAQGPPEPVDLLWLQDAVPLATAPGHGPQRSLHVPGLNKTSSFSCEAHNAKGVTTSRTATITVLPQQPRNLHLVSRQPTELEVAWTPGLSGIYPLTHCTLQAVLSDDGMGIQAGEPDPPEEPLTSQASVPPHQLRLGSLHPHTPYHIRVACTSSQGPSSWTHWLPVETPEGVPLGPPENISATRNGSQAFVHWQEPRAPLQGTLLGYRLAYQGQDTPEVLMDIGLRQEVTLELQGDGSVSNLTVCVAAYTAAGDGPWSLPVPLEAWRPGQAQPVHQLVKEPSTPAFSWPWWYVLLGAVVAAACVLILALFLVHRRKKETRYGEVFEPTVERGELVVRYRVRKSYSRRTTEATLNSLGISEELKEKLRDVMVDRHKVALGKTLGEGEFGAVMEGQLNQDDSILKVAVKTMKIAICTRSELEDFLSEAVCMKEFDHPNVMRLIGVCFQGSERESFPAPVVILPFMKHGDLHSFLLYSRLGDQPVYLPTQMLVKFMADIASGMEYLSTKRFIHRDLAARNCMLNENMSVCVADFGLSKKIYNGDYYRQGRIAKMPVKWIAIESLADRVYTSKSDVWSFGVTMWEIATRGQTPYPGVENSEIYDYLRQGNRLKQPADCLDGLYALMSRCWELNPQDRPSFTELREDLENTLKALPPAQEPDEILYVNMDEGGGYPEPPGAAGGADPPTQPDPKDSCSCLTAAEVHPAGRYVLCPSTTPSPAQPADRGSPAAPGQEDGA

IC50 (Axl) | IC50 (Tyro3) | Compound
32 nM | 19 nM | CCCCNc1ncc(-c2ccc(CN3C[C@@H]4C[C@H]3CN4)cn2)c(NC2CCC(O)CC2)n1 (stereo partly drawn) [UNC4112A]
177 nM | – | CCCCNc1ncc(C(=O)Nc2ccc(CN3CCN(C)CC3)cc2)c(N[C@H]2CC[C@H](O)CC2)n1 [UNC2764A]
698 nM | 242 nM | CCCCNc1ncc(C(=O)NCc2ccc(-c3ccc(OC)cc3)nc2)c(N[C@H]2CC[C@H](O)CC2)n1 [UNC4238A]
52 nM | 11 nM | CCCCNc1ncc(-c2ccc(C3(N4CCOCC4)CCC3)cn2)c(NC2CCC(O)CC2)n1 (stereo not drawn) [UNC3666A]
1630 nM | 241 nM | CCCCNc1ncc(-c2ccc(C=O)o2)c(N[C@H]2CC[C@H](O)CC2)n1 [UNC2902A, 5-(2-(Butylamino)-4-((trans-4-hydroxycyclohexyl)amino)pyrimidin-5-yl)furan-2-carbaldehyde]
968 nM | 605 nM | CCCCNc1ncc(-c2cnc(N)cn2)c(N[C@H]2CC[C@H](O)CC2)n1 [UNC3041A]
220 nM | 148 nM | CCCCNc1ncc(C(=O)NCc2cccs2)c(N[C@H]2CC[C@H](O)CC2)n1 [UNC2762A]
123 nM | 43 nM | CCCCNc1ncc(-c2cc(N)ncn2)c(N[C@H]2CC[C@H](O)CC2)n1 [UNC3072A]
579 nM | 380 nM | CCCCNc1ncc(-c2cc(NC3CCCCCC3)ncn2)c(N[C@H]2CC[C@H](O)CC2)n1 [UNC4261A]
743 nM | 340 nM | CCCCNc1ncc(C(=O)NCc2ccc(C3=CCCCC3)nc2)c(N[C@H]2CC[C@H](O)CC2)n1 [UNC4256A]
– | 375 nM | CCCCNc1ncc(C(=O)NCc2ccon2)c(N[C@H]2CC[C@H](O)CC2)n1 [UNC4290A]
40 nM | 13 nM | CCCCNc1ncc(-c2ccc(C=C3CCNCC3)cn2)c(N[C@H]2CC[C@H](O)CC2)n1 [UNC4336A]
– | 19 nM | CCCCNc1ncc(-c2ccc(CN3CCNCC3(C)C)cn2)c(NC2CCC(O)CC2)n1 (stereo not drawn) [UNC4110A]
597 nM | 157 nM | CCCCNc1ncc(-c2nccs2)c(N[C@H]2CC[C@H](O)CC2)n1 [UNC3047A]
470 nM | 195 nM | CCCCNc1ncc(C(=O)NCc2ccc(-c3ccccc3)nc2)c(N[C@H]2CC[C@H](O)CC2)n1 [UNC4234A]
– | 27 nM | CCCCNc1ncc(-c2ccc(CN3CC(C)NC(C)C3)cn2)c(NC2CCC(O)CC2)n1 (stereo not drawn) [UNC4105A]
325 nM | 183 nM | CCCCNc1ncc(C(=O)NCc2ccc(N3CCCC3)cc2)c(N[C@H]2CC[C@H](O)CC2)n1 [UNC2886A]
30000 nM | 20000 nM | CCCCNc1ncc(-c2ccccn2)c(NCCO)n1 [UNC2997A]
30000 nM | 619 nM | CCCCNc1ncc(-c2cc(Nc3cccc(C(C)C)c3)ncn2)c(N[C@H]2CC[C@H](O)CC2)n1 [UNC4323A]
314 nM | 130 nM | CCCCNc1ncc(C(=O)NC2CCN(CCc3ccccc3)CC2)c(N[C@H]2CC[C@H](O)CC2)n1 [UNC2800A]
336 nM | 156 nM | CCCCNc1ncc(C(=O)NCc2ccc(-c3ccccc3OC)nc2)c(N[C@H]2CC[C@H](O)CC2)n1 [UNC4255A]
30000 nM | 9620 nM | CCCCNc1ncc(-c2nccnc2N)c(N[C@H]2CC[C@H](O)CC2)n1 [UNC3119A]
136 nM | 200 nM | CCCCNc1ncc(C(=O)NCc2ccc(-n3cnc(C)c3)cc2)c(N[C@H]2CC[C@H](O)CC2)n1 [UNC2956A]
266 nM | 98 nM | CCCCNc1ncc(C(=O)Nc2ccc(CCN3CCN(C)CC3)cc2)c(N[C@H]2CC[C@H](O)CC2)n1 [UNC2806A]

IC50 (Axl) | IC50 (Tyro3) | Compound
122 nM | 68 nM | CCCCNc1ncc(-c2ccc(CCCN3CCCC3)cn2)c(N[C@H]2CC[C@H](O)CC2)n1 [UNC4220A]
471 nM | 217 nM | CCCCNc1ncc(C(=O)NCc2cncnc2)c(N[C@H]2CC[C@H](O)CC2)n1 [UNC4307A]
137 nM | 56 nM | CCCCNc1ncc(-c2ccc(CC3CCNCC3)cn2)c(N[C@H]2CC[C@H](O)CC2)n1 [UNC4335A, trans-4-((2-(butylamino)-5-(5-(piperidin-4-ylmethyl)pyridin-2-yl)pyrimidin-4-yl)amino)cyclohexan-1-ol]
191 nM | 166 nM | CCCCNc1ncc(C(=O)NC2CCN(CC3CCCC3)CC2)c(N[C@H]2CC[C@H](O)CC2)n1 [UNC2878A]
5540 nM | 4640 nM | CCCCNc1ncc(C(=O)NCCCN2CCOCC2)c(NCCCC)n1 [UNC1840A]
1090 nM | 502 nM | CCCCNc1ncc(C(=O)NCc2cccc3ccccc23)c(N[C@H]2CC[C@H](O)CC2)n1 [UNC2763A]
408 nM | 123 nM | CCCCNc1ncc(C(=O)NC2CCN(Cc3cccnc3)CC2)c(N[C@H]2CC[C@H](O)CC2)n1 [UNC2802A]
977 nM | 305 nM | CCCCNc1ncc(C(=O)NCc2ccc(-c3ccc(C#N)cc3)nc2)c(N[C@H]2CC[C@H](O)CC2)n1 [UNC4239A]
5300 nM | 409 nM | CCCC1(Nc2ncc(-c3ccc(CN4CCN(C)CC4)cn3)c(NC3CCC(O)CC3)n2)CC1 (stereo not drawn) [UNC3668A]
1200 nM | 412 nM | CCCCNc1ncc(C(=O)NCC(=O)N2CCCCC2)c(N[C@H]2CC[C@H](O)CC2)n1 [UNC2604A]
93 nM | 18 nM | CCCCNc1ncc(-c2ccc(C3(N4CCOCC4)CC3)cn2)c(NC2CCC(O)CC2)n1 (stereo not drawn) [UNC3664A]
12300 nM | 194 nM | CCCCNc1ncc(-c2cc(Nc3ccccc3OC)ncn2)c(N[C@H]2CC[C@H](O)CC2)n1 [UNC4272A]
119 nM | 28 nM | CCCCNc1ncc(-c2ccc(CN3C[C@H](C)NC[C@H]3C)cn2)c(NC2CCC(O)CC2)n1 (stereo partly drawn) [UNC4109A]
216 nM | 92 nM | CCCCNc1ncc(C(=O)NCc2ccc(-c3cccnc3)nc2)c(N[C@H]2CC[C@H](O)CC2)n1 [UNC4236A]
255 nM | 77 nM | CCCCNc1ncc(-c2cc(NCC)ncn2)c(N[C@H]2CC[C@H](O)CC2)n1 [UNC3113A]
667 nM | 1060 nM | CCCCNc1ncc(C(=O)NCc2ccc(-n3cnc(-c4ccccc4)c3)cc2)c(N[C@H]2CC[C@H](O)CC2)n1 [UNC2969A]
53 nM | 53 nM | CCCCNc1ncc(-c2ccc(CC3CCNC3)cn2)c(N[C@H]2CC[C@H](O)CC2)n1 (stereo partly drawn) [UNC4386A, trans-4-((2-(butylamino)-5-(5-(pyrrolidin-3-ylmethyl)pyridin-2-yl)pyrimidin-4-yl)amino)cyclohexan-1-ol]
245 nM | 230 nM | CCCCNc1ncc(C(=O)NC2CCN(CC3CCCCC3)CC2)c(N[C@H]2CC[C@H](O)CC2)n1 [UNC2877A]
275 nM | 298 nM | CCCCNc1ncc(-c2ccc(N3CCN(C(=O)OC(C)(C)C)CC3)nn2)c(N[C@H]2CC[C@H](O)CC2)n1 [UNC3071A]
420 nM | 178 nM | CCCCNc1ncc(C(=O)NCC2CCN(C(C)C)CC2)c(N[C@H]2CC[C@H](O)CC2)n1 [UNC4289A]
409 nM | 184 nM | CCCCNc1ncc(C(=O)Nc2ccc(CCN3CCOCC3)cc2)c(N[C@H]2CC[C@H](O)CC2)n1 [UNC2805A]
592 nM | 210 nM | CCCCNc1ncc(C(=O)NCc2ccc(N3CCOCC3)cc2)c(N[C@H]2CC[C@H](O)CC2)n1 [UNC2804A]
205 nM | 113 nM | CCCCNc1ncc(C(=O)NC2CCN(CCCc3ccccc3)CC2)c(N[C@H]2CC[C@H](O)CC2)n1 [UNC2801A]
489 nM | 244 nM | CCCCNc1ncc(C(=O)NCc2ccc(-c3cccc(OC)c3)nc2)c(N[C@H]2CC[C@H](O)CC2)n1 [UNC4246A]

Compound | IC50 (Axl) | IC50 (Tyro3)
CCCCNc1ncc(-c2ccc(CN3C4CCCC3CC4)cn2)c(N[C@H]2CC[C@H](O)CC2)n1 [UNC4169A] | 9.6 nM | 3.9 nM
CCCCNc1ncc(-c2ccc(NC(=O)C3CCCC3)cn2)c(NC2CCC(O)CC2)n1 (stereo not drawn) [UNC2791A] | 886 nM | 416 nM
CCCCNc1ncc(-c2ccc(CNC3CC4CCC(C3)N4C)cn2)c(N[C@H]2CC[C@H](O)CC2)n1 (stereo partly drawn) [UNC4163A] | 20 nM | 8.7 nM
CCCCNc1ncc(-c2ccc(C3=CCNCC3)cn2)c(N[C@H]2CC[C@H](O)CC2)n1 [UNC4354A] | 27 nM | 24 nM
CCCCNc1ncc(C(=O)NCc2ccc(Cn3ccnc3)cc2)c(N[C@H]2CC[C@H](O)CC2)n1 [UNC3144A] | 487 nM | 360 nM
CCCCNc1ncc(-c2nc(C(F)(F)F)cs2)c(N[C@H]2CC[C@H](O)CC2)n1 [UNC3149A] | 30000 nM | 30000 nM
CCCCNc1ncc(-c2nc(C(=O)O)cs2)c(N[C@H]2CC[C@H](O)CC2)n1 [UNC3139A] | 4540 nM | 2550 nM
CCCCNc1ncc(-c2ncc(C(N)=O)s2)c(N[C@H]2CC[C@H](O)CC2)n1 [UNC3134A] | 146 nM | 62 nM
CCCCNc1ncc(-c2ncc(C(=O)O)s2)c(N[C@H]2CC[C@H](O)CC2)n1 [UNC3331A] | 414 nM | 95 nM
CCCCNc1ncc(-c2ccc(CNC3CC4CCC(C3)N4C)cn2)c(N[C@H]2CC[C@H](O)CC2)n1 (stereo partly drawn) [UNC4165A] | 18 nM | 8 nM
OCCCCNc1ncc(-c2nccs2)c(N[C@H]2CC[C@H](O)CC2)n1 [UNC3146A] | 984 nM | 1010 nM
CCCCNc1ncc(-c2cncc(NC3CCCCC3)n2)c(N[C@H]2CC[C@H](O)CC2)n1 [UNC3137A] | 1230 nM | 412 nM
CCCCNc1ncc(-c2nc(C(N)=O)cs2)c(N[C@H]2CC[C@H](O)CC2)n1 [UNC3136A] | 237 nM | 76 nM
CCCCNc1ncc(-c2ccc(NC(=O)C3CC3)cn2)c(NC2CCC(O)CC2)n1 (stereo not drawn) [UNC2711A] | 644 nM | 265 nM
CCCCNc1ncc(-c2ccc(-c3cccc(C(=O)O)c3)nn2)c(N[C@H]2CC[C@H](O)CC2)n1 [UNC3141A] | 30000 nM | –
CCCCNc1ncc(-c2ncc(C)s2)c(N[C@H]2CC[C@H](O)CC2)n1 [UNC3140A] | 395 nM | 322 nM
